Like-named read-outs stand apart in the source and are kept apart here.
Molecular target: T1, Syk kinase (Homo sapiens, UniProt P43405)
T1 construct: purchased
Assay: Syk kinase inhibition, Caliper LabChip off-chip mobility-shift kinase assay
Format: biochemical
Settings: read-out: Syk Enzyme IC50
Description: Compounds of the examples and Table 1 provided herein were assayed to measure their capacity to inhibit Syk kinase.
Compounds of the examples and Table 1 provided herein were assessed for their ability to inhibit Syk kinase by utilizing Caliper Life Sciences' proprietary LabChip™ technology. The off-chip incubation mobility-shift kinase assay uses a microfluidic chip to measure the conversion of a fluorescent peptide substrate to a phosphorylated product. The reaction mixture, from a microtiter plate well, is introduced through a capillary sipper onto the chip, where the nonphosphorylated substrate and phosphorylated product are separated by electrophoresis and detected via laser induced fluorescence. […] The phosphorylated product migrates through the chip faster than the non-phosphorylated substrate, and signals from the two forms of the peptide appear as distinct peaks. Caliper's data analysis software (HTSWA) determines peak heights, from which the ratio of product to the peak sum P/(P+S) and percent (%) conversion is calculated. This value is used to compare compound wells to control wells present on the plate, and thereby determine the % inhibition values for the compound. The formula used to calculate % inhibition is as follows, where C100% is the average % conversion of the 100% activity wells and Co% is the average % conversion of the 0% activity wells: (1−(% conversionofsample−C0%)/(C100%−C0%))*100.
Compounds (10 mM stocks in 100% DMSO) are diluted to a final concentration of 5 μM for single point inhibition experiments, and a series dilution of 10, 3, 1, 0.3, 0.1, 0.03, 0.01, 0.003, 0.001, 0.0003, 0.0001, and 0.00003 μM were made for IC50 determination. Generally, 12 μL of enzyme buffer containing purified kinase (various amount; various suppliers), 100 mM HEPES, pH 7.5, 1 mM DTT (Calbiochem, 2333153), 10 mM MgCl2 (Sigma, M-1028) or 10 mM MnCl2 (Sigma, M-1787) (assay specific), and 0.002% Brij-35 (Sigma, B4184) are added to each well. Compound and enzyme are allowed to pre-incubate for 15 minutes. 12 μL of peptide/ATP buffer containing 100 mM HEPES, pH 7.5, 1.5 μM fluorescein-labeled peptide (specific to kinase of interest), ATP (at KM apparent, Sigma, A9187), and 0.002% Brij-35 is then added to each well to initiate the reaction. The final concentration of DMSO in the well is 4%. Generally, reactions are incubated for 1 to 1.5 hours at room temperature to obtain adequate conversion of peptide to phosphorylated product in the linear range of the reaction. Reactions are terminated with the addition of 45 μL of Stop Buffer (containing 20 mM EDTA). Plates are then read on the LabChip 3000 using a 12-sipper LabChip. % conversion values and % inhibition values are obtained as provided and IC50 curves of compounds are generated using GraphPad Prism Version 4 or 5.01, or XLfit Version 4.3.2. When using GraphPad Prism, a nonlinear curve fit using the sigmoidal dose response—variable slope fit was used to graph IC50 curves and determine IC50 values and hillslopes. When using XLfit, Fit Model 205 (4-Parameter Logistic Model) is used to generate and fit the IC50 curve.

Structure (SMILES): CC(C)(CO)Nc1nc(-c2cnc(N)nc2)cc2ccn(CCO)c(=O)c12 [compound 902]
- IC50 (Caliper LabChip assay): 57 nM

Structure (SMILES): CC(C)(C)Nc1nc(Nc2cc(C(C)(C)O)ccn2)cc2ccn(CC(N)=O)c(=O)c12 [compound 726]
- IC50 (Caliper LabChip assay): 108 nM

Structure (SMILES): CC(C)(C)Nc1nc(Nc2cc(C3(O)COC3)ccn2)cc2ccn(CCO)c(=O)c12 [Compound No. 609, 8-(tert-butylamino)-2-(2-hydroxyethyl)-6-(4-(3-hydroxyoxetan-3-yl)pyridin-2-ylamino)-2,7-naphthyridin-1(2H)-one]
- IC50 (Caliper LabChip assay): 12 nM

Structure (SMILES): CC(C)(C)Nc1nc(Nc2cc(CN3CCCCC3)ccn2)cc2ccn(CCO)c(=O)c12 [compound 604]
- IC50 (Caliper LabChip assay): 251 nM

Structure (SMILES): CCn1ccc2cc(Nc3cnccn3)nc(NC(C)(C)C)c2c1=O [compound 465]
- IC50: 147 nM

Structure (SMILES): Cc1cc(Nc2cc3ccn(CCO)c(=O)c3c(NC(C)(C)CO)n2)ncc1F [compound 498]
- IC50: 76 nM

Structure (SMILES): CCCc1ccnc(Nc2cc3cc[nH]c(=O)c3c(NC(C)C)n2)c1 [compound 502]
- IC50: 164 nM

Structure (SMILES): COCCNC(=O)c1ccnc(Nc2cc3ccn(CCO)c(=O)c3c(NC(C)(C)C)n2)c1 [compound 682]
- IC50 (Caliper LabChip assay): 329 nM

Structure (SMILES): [2H]C([2H])([2H])n1ccc2cc(Nc3cc(C)c(Cl)cn3)nc(NC(C)(C)CO)c2c1=O [compound 777]
- IC50 (Caliper LabChip assay): 137 nM

Structure (SMILES): CC(C)Nc1nc(-c2cnc(N)nc2)cc2ccn(CCO)c(=O)c12 [compound 892]
- IC50 (Caliper LabChip assay): 136 nM

Structure (SMILES): CCCc1cc2cc[nH]c(=O)c2c(Nc2ccc(N3CCO[C@H](C)C3)c(C)c2)n1 [compound 225]
- IC50: 2300 nM

Structure (SMILES): CCn1ccc2cc(Nc3cnccn3)nc(N[C@H]3CCCC[C@H]3O)c2c1=O (racemic) [compound 409]
- IC50: 128 nM

Structure (SMILES): Cc1cc(-c2cc3cc[nH]c(=O)c3c(Nc3ccc([C@H]4CC[C@H](N5CCOCC5)CC4)cc3)n2)cnc1N [compound 100]
- IC50: 193 nM

Structure (SMILES): CCN1CCN(CCc2ccc(Nc3nc(Nc4ccccn4)cc4cc[nH]c(=O)c34)cc2)CC1 [compound 551]
- IC50: 200 nM

Structure (SMILES): Cc1cc(Nc2nc(C(C)C)cc3cc[nH]c(=O)c23)ccc1N1CCO[C@H](C)C1 [compound 226]
- IC50: 1740 nM

Structure (SMILES): O=c1[nH]ccc2cc(CCO)nc(Nc3ccc(N4CCOCC4)cc3)c12 [compound 244]
- IC50: 31 nM

Structure (SMILES): CC1(Nc2nc(Nc3cc(C(C)(C)O)ncn3)cc3ccn(CC(O)CO)c(=O)c23)CCC1 (stereo not drawn) [compound 732]
- IC50 (Caliper LabChip assay): 35 nM

Structure (SMILES): Nc1ncc(-c2cc3ccn(CC4CC4(F)F)c(=O)c3c(Nc3ccc(N4CCOCC4)cc3)n2)cn1 (stereo not drawn) [compound 4]
- IC50: 489 nM

Structure (SMILES): Nc1ncc(-c2cc3cc[nH]c(=O)c3c(N[C@@H]3CCC[C@H]3O)n2)cn1 [compound 184]
- IC50: 59 nM

Structure (SMILES): CCC(C(=O)OC)N1CCC(c2ccc(Nc3nc(-c4cncc(OC)n4)cc4cc[nH]c(=O)c34)cc2C)CC1 (stereo not drawn) [compound 118]
- IC50: 346 nM

Structure (SMILES): Cc1ccnc(Nc2cc3ccn(C(C)C)c(=O)c3c(NC(C)(C)C)n2)c1 [compound 821]
- IC50 (Caliper LabChip assay): 272 nM

Structure (SMILES): CCc1ccnc(Nc2cc3ccn(CC)c(=O)c3c(NC(C)C)n2)c1 [compound 304]
- IC50: 384 nM

Structure (SMILES): Cc1ccnc(Nc2cc3ccn(C)c(=O)c3c(NC[C@@H](C)O)n2)c1 [compound 511]
- IC50: 86 nM

Structure (SMILES): [2H]C([2H])([2H])n1ccc2cc(Nc3cc(C)c(Cl)cn3)nc(NC(C)(C)C)c2c1=O [compound 537]
- IC50: 502 nM

Structure (SMILES): CCn1ccc2cc(Nc3cnccn3)nc(NC3CCS(=O)(=O)C3)c2c1=O (stereo not drawn) [compound 971]
- IC50 (Caliper LabChip assay): 145 nM

Structure (SMILES): CC(C)(C)Nc1nc(Nc2cc(-c3ccnc(N)n3)ccn2)cc2ccn(CCO)c(=O)c12 [compound 691]
- IC50 (Caliper LabChip assay): 59 nM

Structure (SMILES): Cc1cc(Nc2nc(C(C)C)cc3cc[nH]c(=O)c23)ccc1C1CCN(C2CC2)CC1 [compound 231]
- IC50: 864 nM

Structure (SMILES): Nc1ncc(-c2cc3ccn(CCN4CCOCC4)c(=O)c3c(N[C@H]3CC[C@@H](O)CC3)n2)cn1 [compound 1029]
- IC50 (Caliper LabChip assay): 72 nM

Structure (SMILES): COc1cncc(-c2cc3cc[nH]c(=O)c3c(Nc3ccc(C4CCN(CCF)CC4)c(C)c3)n2)n1 [compound 79]
- IC50: 27 nM

Structure (SMILES): Cc1ccnc(Nc2cc3ccn(C)c(=O)c3c(NC(C)(C)CO)n2)c1 [compound 499]
- IC50: 31 nM

Structure (SMILES): O=c1[nH]ccc2cc(C3=CCNCC3)nc(Nc3ccc(N4CCOCC4)cc3)c12 [compound 88]
- IC50: 51 nM

Structure (SMILES): CCC(C)Nc1nc(Nc2ccc(F)cn2)cc2cc[nH]c(=O)c12 (stereo not drawn) [compound 264]
- IC50: 423 nM

Structure (SMILES): CCn1ccc2cc(-c3cnc(N)nc3)nc(N[C@@H]3CCC(F)C3)c2c1=O (stereo partly drawn) [compound 749]
- IC50 (Caliper LabChip assay): 45 nM

Structure (SMILES): O=c1c2c(NC3CCS(=O)(=O)C3)nc(Nc3cnccn3)cc2ccn1CCO (stereo not drawn) [compound 975]
- IC50 (Caliper LabChip assay): 370 nM

Structure (SMILES): CC(C)(C)Nc1nc(Nc2cc(CO)ccn2)cc2ccn(CC(=O)O)c(=O)c12 [compound 875]
- IC50 (Caliper LabChip assay): 6 nM

Structure (SMILES): CC(C)(C)Nc1nc(Nc2cc(-c3ccc4[nH]ncc4c3)ccn2)cc2ccn(CCO)c(=O)c12 [compound 851]
- IC50 (Caliper LabChip assay): 222 nM

Structure (SMILES): CC(C)n1ccc2cc(-c3cnc(N)nc3)nc(N[C@H]3CC[C@@H](CO)C3)c2c1=O [compound 1030]
- IC50 (Caliper LabChip assay): 48 nM

Structure (SMILES): CCn1ccc2cc(Nc3cc(C)ccn3)nc(NCC(O)C(F)(F)F)c2c1=O (stereo not drawn) [compound 778]
- IC50 (Caliper LabChip assay): 413 nM

Structure (SMILES): CC(C)(C)Nc1nc(Nc2nccs2)cc2ccn(CCO)c(=O)c12 [compound 692]
- IC50 (Caliper LabChip assay): 1020 nM

Structure (SMILES): CCN1CCC[C@H]1CNc1nc(Nc2cc(C)ccn2)cc2cc[nH]c(=O)c12 [compound 590]
- IC50: 3500 nM

Structure (SMILES): CCN1CCN(Cc2n[nH]c3cc(Nc4nc(-c5cncc(C(=O)N6CCOCC6)c5)cc5cc[nH]c(=O)c45)ccc23)CC1 [compound 207]
- IC50: 89 nM

Structure (SMILES): Cn1ccc2cc(Nc3cnccn3)nc(Nc3cccc(S(N)(=O)=O)c3)c2c1=O [compound 339]
- IC50: 879 nM

Structure (SMILES): O=c1[nH]ccc2cc(Nc3ccc(F)cn3)nc(Nc3ccc(N4CCOCC4)cc3)c12 [compound 576]
- IC50: 4870 nM

Structure (SMILES): CC(C)(C)Nc1nc(Nc2c[n+]([O-])ccn2)cc2ccn(C[C@H](O)CO)c(=O)c12 [compound 674]
- IC50 (Caliper LabChip assay): 7 nM

Structure (SMILES): CC(C)(C)Nc1nc(-c2cnc(N)nc2)cc2ccn(CC(O)C(F)(F)F)c(=O)c12 (stereo not drawn) [compound 926]
- IC50 (Caliper LabChip assay): 50 nM

Structure (SMILES): COc1nc(-c2cc3cc[nH]c(=O)c3c(Nc3ccc(C4CCN(CCC#N)CC4)cc3)n2)cnc1N [compound 154]
- IC50: 20 nM

Structure (SMILES): CCc1ccnc(Nc2cc3cc[nH]c(=O)c3c(NC(C)C)n2)c1 [compound 491]
- IC50: 63 nM

Structure (SMILES): CCn1ccc2cc(Nc3cnc(C)cn3)nc(N[C@@H](C)CO)c2c1=O [compound 394]
- IC50: 384 nM

Structure (SMILES): CO/N=C(\C)c1cc2cc[nH]c(=O)c2c(Nc2ccc(N3CCO[C@H](C)C3)c(C)c2)n1 [compound 234]
- IC50: 1310 nM

Structure (SMILES): O=c1[nH]ccc2cc(C3=CCOCC3)nc(Nc3ccc(N4CCOCC4)cc3)c12 [compound 86]
- IC50: 96 nM

Structure (SMILES): CC(C)(C)Nc1nc(Nc2cc(C(O)CN)ccn2)cc2ccn(CCO)c(=O)c12 (stereo not drawn) [compound 612, 6-(4-(2-amino-1-hydroxyethyl)pyridin-2-ylamino)-8-(tert-butylamino)-2-(2-hydroxyethyl)-2,7-naphthyridin-1(2H)-one]
- IC50 (Caliper LabChip assay): 453 nM

Structure (SMILES): COc1cncc(-c2cc3cc[nH]c(=O)c3c(Nc3ccc(CCC(=O)N4CCOCC4)cc3)n2)n1 [compound 25]
- IC50: 24 nM

Structure (SMILES): C=Cc1ccnc(Nc2cc3ccn(CCO)c(=O)c3c(NC(C)(C)C)n2)c1 [compound 858]
- IC50 (Caliper LabChip assay): 46 nM

Structure (SMILES): CN(C)CCn1ccc2cc(Nc3cnccn3)nc(N[C@H]3CC[C@@H](O)CC3)c2c1=O [compound 387]
- IC50: 33 nM

Structure (SMILES): CCOCCOc1ccc(Nc2nc(Nc3cnccn3)cc3ccn(C)c(=O)c23)cc1 [compound 340]
- IC50: 2060 nM

Structure (SMILES): CC(C)(C)Nc1nc(Nc2cc(C(C)(C)O)c(F)cn2)cc2ccn(CCO)c(=O)c12 [compound 717]
- IC50 (Caliper LabChip assay): 18 nM

Structure (SMILES): CC(C)(C)Nc1nc(Nc2cc(-n3cc(C(=O)O)cn3)ncn2)cc2ccn(CCO)c(=O)c12 [compound 888]
- IC50 (Caliper LabChip assay): 24 nM

Structure (SMILES): CCNC(=O)Cn1ccc2cc(Nc3cc(C)ccn3)nc(NC(C)C)c2c1=O [compound 316]
- IC50: 270 nM

Structure (SMILES): Cc1ccnc(Nc2cc3ccn(CCO)c(=O)c3c(NC(C)(C)CO)n2)c1 [compound 495]
- IC50: 52 nM

Structure (SMILES): O=c1c2c(N[C@H]3CC[C@@H](O)CC3)nc(Nc3cnccn3)cc2ccn1C1CS(=O)(=O)C1 [compound 1010]
- IC50 (Caliper LabChip assay): 10 nM
